Laboratory results from ChEMBL document CHEMBL5291721, “A preclinical secondary pharmacology resource illuminates target-adverse drug reaction associations of marketed drugs” (Nat Commun, 2023).

Tests used:
Vasopressin V2 receptor = Vasopressin V2 receptor (Homo sapiens, UniProt P30518)
[1] = target: T1, Amine oxidase [flavin-containing] A (Homo sapiens, UniProt P21397); format: functional
T1 sequence (P21397 whole entry): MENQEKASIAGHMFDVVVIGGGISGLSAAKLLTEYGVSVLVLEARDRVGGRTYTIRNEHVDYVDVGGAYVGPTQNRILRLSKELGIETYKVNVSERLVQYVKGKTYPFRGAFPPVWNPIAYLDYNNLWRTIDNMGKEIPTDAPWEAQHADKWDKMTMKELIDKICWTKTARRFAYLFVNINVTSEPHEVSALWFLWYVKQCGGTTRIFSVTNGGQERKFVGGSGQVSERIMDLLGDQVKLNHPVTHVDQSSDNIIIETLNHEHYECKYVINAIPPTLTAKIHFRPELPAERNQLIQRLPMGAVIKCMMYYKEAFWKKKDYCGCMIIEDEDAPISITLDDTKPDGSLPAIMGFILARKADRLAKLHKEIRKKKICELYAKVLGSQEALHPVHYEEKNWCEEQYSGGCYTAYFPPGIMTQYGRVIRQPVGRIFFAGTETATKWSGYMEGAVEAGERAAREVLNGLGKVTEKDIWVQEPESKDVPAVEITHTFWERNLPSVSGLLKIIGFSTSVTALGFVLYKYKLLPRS

[2] = target: Growth hormone secretagogue receptor type 1 (Homo sapiens, UniProt Q92847)
[3] = target: cGMP-inhibited 3',5'-cyclic phosphodiesterase 3A (Homo sapiens, UniProt Q14432); format: functional
[4] = target: T2, Prostaglandin G/H synthase 1 (Rattus norvegicus, UniProt Q63921); format: functional
T2 sequence (Q63921 whole entry): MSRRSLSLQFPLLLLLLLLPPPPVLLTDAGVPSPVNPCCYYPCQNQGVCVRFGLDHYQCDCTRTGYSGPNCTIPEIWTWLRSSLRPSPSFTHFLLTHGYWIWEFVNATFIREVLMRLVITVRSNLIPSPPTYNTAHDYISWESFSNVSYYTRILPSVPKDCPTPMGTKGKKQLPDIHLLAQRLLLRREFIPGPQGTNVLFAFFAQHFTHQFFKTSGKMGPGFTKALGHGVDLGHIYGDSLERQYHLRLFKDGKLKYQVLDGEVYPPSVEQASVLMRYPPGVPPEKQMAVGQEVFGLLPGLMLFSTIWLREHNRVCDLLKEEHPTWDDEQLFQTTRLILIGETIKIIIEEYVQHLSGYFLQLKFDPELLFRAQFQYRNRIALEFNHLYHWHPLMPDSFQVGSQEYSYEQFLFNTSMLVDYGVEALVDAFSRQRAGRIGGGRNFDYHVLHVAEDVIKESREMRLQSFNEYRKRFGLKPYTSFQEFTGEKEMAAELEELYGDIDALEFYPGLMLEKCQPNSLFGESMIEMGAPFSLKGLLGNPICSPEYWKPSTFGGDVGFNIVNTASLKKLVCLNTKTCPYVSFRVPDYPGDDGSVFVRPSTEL

[5] = target: Neuronal acetylcholine receptor subunit alpha-4 (Homo sapiens, UniProt P43681)
D(3) dopamine receptor = D(3) dopamine receptor (Homo sapiens, UniProt P35462)
Adenosine receptor A2a = Adenosine receptor A2a (Homo sapiens, UniProt P29274)
[6] = target: T3, Equilibrative nucleoside transporter 1 (Homo sapiens, UniProt Q99808)
T3 sequence (Q99808 whole entry): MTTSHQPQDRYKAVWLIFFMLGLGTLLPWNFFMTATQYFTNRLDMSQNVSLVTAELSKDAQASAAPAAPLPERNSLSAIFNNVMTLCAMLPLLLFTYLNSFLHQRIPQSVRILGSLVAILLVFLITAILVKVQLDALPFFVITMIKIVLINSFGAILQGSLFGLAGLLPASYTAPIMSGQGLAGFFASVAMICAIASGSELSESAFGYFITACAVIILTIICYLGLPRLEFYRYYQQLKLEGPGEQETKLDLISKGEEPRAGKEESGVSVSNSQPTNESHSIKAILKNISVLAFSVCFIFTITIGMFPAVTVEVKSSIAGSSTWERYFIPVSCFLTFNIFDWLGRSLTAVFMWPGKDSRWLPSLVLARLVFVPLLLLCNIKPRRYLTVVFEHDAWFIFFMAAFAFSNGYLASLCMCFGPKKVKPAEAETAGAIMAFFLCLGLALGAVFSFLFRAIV

[7] = target: T4, Neuropeptide Y receptor type 1 (Homo sapiens, UniProt P25929)
T4 sequence (P25929 whole entry): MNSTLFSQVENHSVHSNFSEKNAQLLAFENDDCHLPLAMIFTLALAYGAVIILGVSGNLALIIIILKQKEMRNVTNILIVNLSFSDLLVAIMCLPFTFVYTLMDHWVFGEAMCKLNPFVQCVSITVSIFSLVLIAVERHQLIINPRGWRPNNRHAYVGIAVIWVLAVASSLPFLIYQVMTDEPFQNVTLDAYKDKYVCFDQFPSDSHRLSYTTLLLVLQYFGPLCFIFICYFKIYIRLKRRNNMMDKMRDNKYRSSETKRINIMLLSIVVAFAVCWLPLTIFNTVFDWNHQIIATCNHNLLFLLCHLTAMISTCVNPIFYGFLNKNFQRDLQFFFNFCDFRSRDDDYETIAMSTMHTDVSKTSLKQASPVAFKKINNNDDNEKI
Also: assay procedure not described here.

Growth hormone secretagogue receptor type 1, sequence (Q92847 whole entry): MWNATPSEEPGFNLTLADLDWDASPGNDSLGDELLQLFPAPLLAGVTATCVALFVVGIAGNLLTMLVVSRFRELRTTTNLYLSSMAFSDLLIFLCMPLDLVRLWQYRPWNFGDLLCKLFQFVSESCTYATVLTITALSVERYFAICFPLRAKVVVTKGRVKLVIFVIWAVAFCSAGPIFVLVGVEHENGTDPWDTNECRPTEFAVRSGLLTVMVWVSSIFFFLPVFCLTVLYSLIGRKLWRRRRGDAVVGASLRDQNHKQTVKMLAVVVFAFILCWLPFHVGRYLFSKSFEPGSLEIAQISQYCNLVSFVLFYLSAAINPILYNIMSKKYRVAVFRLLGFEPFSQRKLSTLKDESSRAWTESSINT
cGMP-inhibited 3',5'-cyclic phosphodiesterase 3A, sequence (Q14432 whole entry): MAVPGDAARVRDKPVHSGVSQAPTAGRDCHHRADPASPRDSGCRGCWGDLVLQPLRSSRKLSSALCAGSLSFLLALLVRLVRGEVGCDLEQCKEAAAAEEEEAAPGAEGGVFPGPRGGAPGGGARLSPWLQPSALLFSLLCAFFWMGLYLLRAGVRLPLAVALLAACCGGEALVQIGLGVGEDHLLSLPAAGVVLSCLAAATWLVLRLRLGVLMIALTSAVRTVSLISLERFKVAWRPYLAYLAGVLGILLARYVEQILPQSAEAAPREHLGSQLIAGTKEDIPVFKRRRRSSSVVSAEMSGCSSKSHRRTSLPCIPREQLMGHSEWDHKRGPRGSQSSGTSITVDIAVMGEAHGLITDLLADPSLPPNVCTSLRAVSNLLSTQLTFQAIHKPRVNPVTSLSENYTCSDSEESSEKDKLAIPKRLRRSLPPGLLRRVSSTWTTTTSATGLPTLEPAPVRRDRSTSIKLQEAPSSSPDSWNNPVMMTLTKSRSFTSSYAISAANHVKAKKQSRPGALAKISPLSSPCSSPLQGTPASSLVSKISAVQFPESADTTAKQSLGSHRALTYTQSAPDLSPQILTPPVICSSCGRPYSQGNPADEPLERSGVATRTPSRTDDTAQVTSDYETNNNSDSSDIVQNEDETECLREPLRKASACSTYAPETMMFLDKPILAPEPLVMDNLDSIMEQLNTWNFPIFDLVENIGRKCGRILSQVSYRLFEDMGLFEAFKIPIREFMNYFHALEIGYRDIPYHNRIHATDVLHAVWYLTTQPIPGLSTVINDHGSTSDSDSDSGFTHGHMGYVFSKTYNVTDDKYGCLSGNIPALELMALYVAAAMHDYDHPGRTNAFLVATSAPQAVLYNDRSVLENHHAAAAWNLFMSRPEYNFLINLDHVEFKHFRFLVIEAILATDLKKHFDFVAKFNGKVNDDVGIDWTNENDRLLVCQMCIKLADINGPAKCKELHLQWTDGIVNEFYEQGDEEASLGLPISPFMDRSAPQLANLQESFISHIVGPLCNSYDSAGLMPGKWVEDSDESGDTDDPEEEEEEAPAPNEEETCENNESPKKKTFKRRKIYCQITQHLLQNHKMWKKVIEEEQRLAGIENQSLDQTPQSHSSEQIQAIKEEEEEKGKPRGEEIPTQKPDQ
Vasopressin V2 receptor, sequence (P30518 whole entry): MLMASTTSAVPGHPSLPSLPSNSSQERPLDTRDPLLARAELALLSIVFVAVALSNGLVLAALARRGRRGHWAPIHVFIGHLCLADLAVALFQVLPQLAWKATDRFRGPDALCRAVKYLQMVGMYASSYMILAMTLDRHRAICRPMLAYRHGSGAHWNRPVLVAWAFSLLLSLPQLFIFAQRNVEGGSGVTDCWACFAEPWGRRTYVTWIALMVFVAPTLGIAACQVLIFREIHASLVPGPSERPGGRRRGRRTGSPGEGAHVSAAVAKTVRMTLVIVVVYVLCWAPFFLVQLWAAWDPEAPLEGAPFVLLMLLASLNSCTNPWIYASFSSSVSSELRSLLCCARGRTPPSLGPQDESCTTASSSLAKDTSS
D(3) dopamine receptor, sequence (P35462 whole entry): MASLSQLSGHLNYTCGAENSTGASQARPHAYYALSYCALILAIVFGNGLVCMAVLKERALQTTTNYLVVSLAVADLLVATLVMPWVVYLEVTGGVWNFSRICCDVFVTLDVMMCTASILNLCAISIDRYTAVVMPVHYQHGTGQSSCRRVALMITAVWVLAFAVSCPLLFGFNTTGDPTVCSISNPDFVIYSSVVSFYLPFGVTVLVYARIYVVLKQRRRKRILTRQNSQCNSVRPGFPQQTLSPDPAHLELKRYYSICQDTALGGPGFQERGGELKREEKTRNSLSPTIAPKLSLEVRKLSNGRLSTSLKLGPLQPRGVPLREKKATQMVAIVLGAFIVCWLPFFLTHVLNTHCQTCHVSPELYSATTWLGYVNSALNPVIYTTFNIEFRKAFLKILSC
Neuronal acetylcholine receptor subunit alpha-4, sequence (P43681 whole entry): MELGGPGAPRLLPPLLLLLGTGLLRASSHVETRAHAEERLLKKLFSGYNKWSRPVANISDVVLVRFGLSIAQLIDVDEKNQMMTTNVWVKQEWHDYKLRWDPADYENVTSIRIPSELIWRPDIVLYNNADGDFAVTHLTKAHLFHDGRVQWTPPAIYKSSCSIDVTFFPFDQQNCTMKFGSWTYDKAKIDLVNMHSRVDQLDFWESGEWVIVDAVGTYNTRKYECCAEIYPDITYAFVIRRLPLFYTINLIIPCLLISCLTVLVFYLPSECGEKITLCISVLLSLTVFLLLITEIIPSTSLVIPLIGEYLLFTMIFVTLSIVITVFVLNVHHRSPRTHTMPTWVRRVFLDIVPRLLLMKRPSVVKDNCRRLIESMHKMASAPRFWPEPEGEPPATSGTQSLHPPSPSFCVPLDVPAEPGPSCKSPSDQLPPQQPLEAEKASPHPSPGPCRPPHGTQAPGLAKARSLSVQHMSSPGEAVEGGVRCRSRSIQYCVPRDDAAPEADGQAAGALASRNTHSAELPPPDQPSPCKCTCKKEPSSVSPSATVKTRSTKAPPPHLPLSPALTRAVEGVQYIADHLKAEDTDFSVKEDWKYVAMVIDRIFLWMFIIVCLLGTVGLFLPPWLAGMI
Adenosine receptor A2a, sequence (P29274 whole entry): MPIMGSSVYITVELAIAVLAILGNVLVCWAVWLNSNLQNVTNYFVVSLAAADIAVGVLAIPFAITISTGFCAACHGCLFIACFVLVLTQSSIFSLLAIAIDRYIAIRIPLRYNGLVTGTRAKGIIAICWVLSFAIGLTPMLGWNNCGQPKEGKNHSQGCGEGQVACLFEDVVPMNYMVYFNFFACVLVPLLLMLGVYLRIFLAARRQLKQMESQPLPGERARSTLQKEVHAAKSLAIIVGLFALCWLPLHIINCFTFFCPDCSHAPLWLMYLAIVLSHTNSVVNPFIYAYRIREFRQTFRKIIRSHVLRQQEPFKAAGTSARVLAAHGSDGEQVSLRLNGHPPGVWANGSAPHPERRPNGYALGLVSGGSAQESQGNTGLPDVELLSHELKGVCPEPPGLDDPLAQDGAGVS

Row | Structure (SMILES) | AC50 (Vasopressin V2 receptor) [µM] | AC50 [1] [µM] | AC50 [2] [µM] | AC50 [3] [µM] | AC50 [4] [µM] | AC50 [5] [µM] | AC50 (D(3) dopamine receptor) [µM] | AC50 (Adenosine receptor A2a) [µM] | AC50 [6] [µM] | AC50 [7] [µM]
1 | COc1ccc2c(c1)c(CC(=O)OCC(=O)O)c(C)n2C(=O)c1ccc(Cl)cc1 [ACEMETACIN] | > 30 | > 30 | > 30 | > 30 | 30 | > 30 | > 30 | > 30 | > 30 | > 30
2 | COc1ccc2cccc(CCNC(C)=O)c2c1 [AGOMELATINE] | > 30 | > 10 | > 30 | > 30 | > 30 | > 10 | > 10 | > 30 | > 30 | > 30
3 | CC(C)c1c(C(=O)Nc2ccccc2)c(-c2ccccc2)c(-c2ccc(F)cc2)n1CC[C@@H](O)C[C@@H](O)CC(=O)O [ATORVASTATIN] | > 30 | > 10 | > 30 | > 10 | > 30 | > 10 | > 30 | > 30 | > 30 | > 30
4 | CN1C(=O)COc2c(C(=O)NC3CN4CCC3CC4)cc(Cl)cc21 (stereo unspecified) [AZASETRON] | > 30 | > 30 | > 30 | > 10 | > 30 | > 30 | > 30 | > 30 | > 30 | > 30
5 | Cc1cc2c(OCC(CNC(C)(C)C)OC(=O)c3ccccc3)cccc2[nH]1 (stereo unspecified) [BOPINDOLOL] | > 30 | > 30 | 16 | > 30 | 3.5 | > 30 | > 30 | > 30 | > 30 | > 30
6 | CCCCN1CCCCC1C(=O)Nc1c(C)cccc1C (stereo unspecified) [BUPIVACAINE] | > 30 | > 30 | > 30 | > 30 | > 30 | > 30 | > 30 | > 30 |  | > 30
7 | CC(C)(Oc1ccc(C2CC2(Cl)Cl)cc1)C(=O)O (stereo unspecified) [CIPROFIBRATE] | > 30 | > 30 | > 30 | > 30 | > 30 | > 30 | > 30 | > 30 | > 30 | > 30
8 | [H]/N=C(/N)c1ccc(NCc2nc3cc(C(=O)N(CCC(=O)O)c4ccccn4)ccc3n2C)cc1 [DABIGATRAN] | > 30 | > 30 | > 30 | > 30 | > 30 | > 30 | > 30 | > 30 | > 30 | > 30
9 | Cc1c(O)c(=O)ccn1C [DEFERIPRONE] | > 30 | > 30 | > 30 | > 30 | > 3 | > 30 | > 30 | > 30 | > 30 | > 30
10 | CC(=O)O[C@@]12CO[C@@H]1C[C@H](O)[C@@]1(C)C(=O)[C@H](O)C3=C(C)[C@@H](OC(=O)[C@H](O)[C@@H](NC(=O)OC(C)(C)C)c4ccccc4)C[C@@](O)([C@@H](OC(=O)c4ccccc4)[C@H]21)C3(C)C [DOCETAXEL ANHYDROUS] | > 30 | > 30 | > 30 | > 30 | > 30 | > 30 | > 30 | > 30 | > 30 | > 30
11 | CN[C@@H](C)[C@H](O)c1ccccc1 [EPHEDRINE] | > 30 | > 10 | > 30 | > 30 | > 30 | > 10 | > 10 | > 30 | > 30 | > 30
12 | CCNC(C)Cc1cccc(C(F)(F)F)c1 (stereo unspecified) [FENFLURAMINE] | > 30 | > 10 | > 30 | > 30 | > 30 | > 10 | 8 | > 30 | > 30 | > 30
13 | COc1c(N2CCNC(C)C2)c(F)cc2c(=O)c(C(=O)O)cn(C3CC3)c12 (stereo unspecified) [GATIFLOXACIN] | > 10 | > 10 | > 10 | > 30 | > 10 | > 10 | > 30 | > 10 | > 10 | > 10
14 | CCN1CCC[C@H]1CNC(=O)c1cc(S(N)(=O)=O)ccc1OC [LEVOSULPIRIDE] | > 30 | > 10 | > 30 | > 30 | > 30 | > 10 |  | > 30 |  | 
15 | Cc1cccc(C)c1NC(=O)C1CCCCN1C (stereo unspecified) [MEPIVACAINE] | > 30 | > 30 | > 30 | > 30 | > 30 | > 30 | > 30 | > 30 | > 30 | > 30
16 | COc1ccccc1OCC(O)COC(N)=O (stereo unspecified) [METHOCARBAMOL] | > 10 | > 10 | > 10 | > 30 | > 10 | > 10 | > 30 | > 10 | > 10 | > 10
17 | COc1c(C)c2c(c(O)c1C/C=C(\C)CCC(=O)OCCN1CCOCC1)C(=O)OC2 [MYCOPHENOLATE MOFETIL] | > 30 | > 30 | > 30 | 17 |  | > 30 | > 30 | > 30 | > 30 | > 30
18 | C#CCN(C)[C@H](C)Cc1ccccc1 [SELEGILINE] | > 10 |  | > 10 | > 30 | > 10 | > 10 | > 30 | > 10 | > 10 | > 10
19 | O=C1NCCN1CCN1CCC(c2cn(-c3ccc(F)cc3)c3ccc(Cl)cc23)CC1 [SERTINDOLE] | 27 | 22 | 28 | > 30 | > 30 | 17 |  | > 30 | > 30 | > 30
20 | Cc1c(C(=O)Nc2ccc(N3C[C@@H](C)O[C@@H](C)C3)nc2)cccc1-c1ccc(OC(F)(F)F)cc1 [SONIDEGIB] | > 30 |  | > 30 | > 30 | > 30 | > 10 |  | > 30 | > 30 | > 30
